In general, Ki refers to the equilibrium dissociation constant of an inhibitor or competing ligand from its target. A high value points to lower affinity.

Consider 71 compounds from ChEMBL document CHEMBL1132933, “Protease inhibitors: synthesis and QSAR study of novel classes of nonbasic thrombin inhibitors incorporating sulfonylguanidine and O-methylsulfonylisourea moieties at P1” (J Med Chem, 2000).

Assay [1] deals with Trypsin (Homo sapiens, UniProt P07477+P07478+P35030). In words: Inhibitory activity against human trypsin (using Chromozym TH as the substrate). It counts as protein assay.
The target in assay [2] is Prothrombin (Homo sapiens, UniProt P00734). Description: Inhibitory activity against human thrombin (using Chromozym TH as the substrate).

With `COC(=N)NS(=O)(=O)c1ccc(NC(=O)C2CCCN2C(=O)NS(=O)(=O)c2ccc(C)cc2)cc1` (centres undefined), the Ki in assay [1] was determined as 1500 nM; in assay [2], 63 nM.

`Cc1ccc(S(=O)(=O)NC(=O)N2CCCC2C(=O)Nc2ccc(S(=O)(=O)NN=C(N)N)cc2)cc1` (centres undefined): the Ki turned out to be 1530 nM in assay [1] and 43 nM in assay [2].

On to `N=C(N)NS(=O)(=O)c1ccc(NC(=O)[C@@H](Cc2ccccc2)NC(=O)OCc2ccccc2)cc1`, for which the Ki in assay [1] was 1285 nM; in assay [2], 54 nM.

On to `COC(=N)NS(=O)(=O)c1cc(Cl)cc(Cl)c1O`, for which the Ki in assay [1] is 1550 nM; in assay [2], 170 nM.

For `Cc1ccc(S(=O)(=O)NC(=O)NCCC(=O)N[C@@H](Cc2c[nH]cn2)C(=O)Nc2ccc(S(=O)(=O)N=C(N)N)cc2)cc1`, the Ki in assay [1] came out at 1350 nM; in assay [2] it was 15 nM.

Consider `CN(C)S(=O)(=O)N=C(N)N`, for which the Ki in assay [1] is recorded as 2890 nM.

As to `N=C(N)NNS(=O)(=O)c1ccc([N+](=O)[O-])cc1`, the Ki was 990 nM in assay [1] and 166 nM in assay [2].

Consider `Cc1ccc(S(=O)(=O)NC(=O)N2CCC[C@H]2C(=O)NCC(=O)Nc2ccc(S(=O)(=O)N=C(N)N)cc2)cc1`, for which the values for the Ki in assay [1] and in assay [2] were 1400 nM and 21 nM, respectively.

As for `Cc1ccc(S(=O)(=O)NC(=O)N[C@@H](Cc2ccccc2)C(=O)N2CCCC2C(=O)Nc2ccc(S(=O)(=O)N=C(N)N)cc2)cc1` (some centres undefined), the Ki was 1315 nM in assay [1] and 12 nM in assay [2].

With `CN(C)c1ccc(/N=N/c2ccc(S(=O)(=O)N=C(N)N)cc2)cc1`, the Ki in assay [1] stood at 1245 nM; in assay [2], 134 nM.

Turning to `N=C(N)NNS(=O)(=O)c1ccccc1[N+](=O)[O-]`, the Ki came to 1800 nM in assay [1] and 324 nM in assay [2].

Regarding `COC(=N)NS(=O)(=O)c1ccc([N+](=O)[O-])c(Cl)c1`, the Ki was 1200 nM in assay [1] and 177 nM in assay [2].

The compound `N=C(N)NCCCNC(=O)[C@@H]1CCCCN1C(=O)C(CC1CCCCC1)NCC(=O)O` (some centres undefined) registered a Ki in assay [1] of 540 nM.

Take `Cc1ccc(S(=O)(=O)NC(=O)N[C@@H](Cc2ccccc2)C(=O)N2CCCC2C(=O)Nc2ccc(S(=O)(=O)NN=C(N)N)cc2)cc1` (some centres undefined): the Ki in assay [1] was found to be 1450 nM; in assay [2] it was 10 nM.

For the compound `N=C(N)NS(=O)(=O)c1c(Br)c(Br)c(Br)c(Br)c1C(=O)O`, the results for the Ki in assay [1] and in assay [2] were 1250 nM and 225 nM, respectively.

With `COC(=N)NS(=O)(=O)C(F)(F)C(F)(F)C(F)(F)C(F)(F)F`, the figures for the Ki in assay [1] and in assay [2] were 2180 nM and 565 nM, respectively.

Consider `COC(=N)NS(=O)(=O)c1ccc(OC)cc1`, for which the results for the Ki in assay [1] and in assay [2] were 1460 nM and 276 nM, respectively.

In the case of `COC(=N)NS(=O)(=O)c1cccc2ccccc12`, the Ki in assay [1] worked out at 1425 nM; in assay [2], 154 nM.

On to `N=C(N)NNS(=O)(=O)c1ccc(NC(=O)[C@@H](Cc2ccccc2)NC(=O)OCc2ccccc2)cc1`, for which the Ki turned out to be 1315 nM in assay [1] and 50 nM in assay [2].

Take `N=C(N)NNS(=O)(=O)c1ccc(N)cc1`: the figures for the Ki in assay [1] and in assay [2] were 1425 nM and 91 nM, respectively.

For `N=C(N)NNS(=O)(=O)c1ccc(I)cc1`, the Ki in assay [1] came to 1300 nM; in assay [2], 177 nM.

Turning to `N=C(N)NNS(=O)(=O)c1ccc2ccccc2c1`, the Ki in assay [1] came out at 1285 nM; in assay [2], 129 nM.

On to `Cc1ccc(S(=O)(=O)NN=C(N)N)cc1`, for which the values for the Ki in assay [1] and in assay [2] were 1775 nM and 270 nM, respectively.

For the compound `N=C(N)NS(=O)(=O)c1ccc([N+](=O)[O-])c(Cl)c1`, the Ki in assay [1] was 990 nM; in assay [2], 160 nM.

For `COC(=N)NS(=O)(=O)c1ccc(/N=N/c2ccc(N(C)C)cc2)cc1`, the Ki in assay [1] turned out to be 1350 nM; in assay [2], 169 nM.

Turning to `COC(=N)NS(=O)(=O)c1ccc(NC(=O)[C@@H](Cc2ccccc2)NC(=O)OCc2ccccc2)cc1`, the Ki in assay [1] was found to be 1425 nM; in assay [2], 62 nM.

Regarding `N=C(N)NNS(=O)(=O)c1ccc([N+](=O)[O-])c(Cl)c1`, the Ki in assay [1] worked out at 1010 nM; in assay [2], 154 nM.

For the compound `N=C(N)NS(=O)(=O)C(F)(F)F`, the values for the Ki in assay [1] and in assay [2] were 1275 nM and 890 nM, respectively.

For the compound `COC(=N)NS(=O)(=O)Cc1ccccc1`, the results for the Ki in assay [1] and in assay [2] were 1900 nM and 450 nM, respectively.

On to `N=C(N)NS(=O)(=O)c1ccc(Br)cc1`, for which the Ki in assay [1] worked out at 1230 nM; in assay [2] it was 220 nM.

With `COC(=N)NS(=O)(=O)c1ccc(OC)c(N)c1`, the figures for the Ki in assay [1] and in assay [2] were 1235 nM and 96 nM, respectively.

For `Cc1ccc(S(=O)(=O)NC(=O)NCC(=O)N[C@@H](Cc2c[nH]cn2)C(=O)Nc2ccc(S(=O)(=O)N=C(N)N)cc2)cc1`, the Ki in assay [1] was found to be 1455 nM; in assay [2], 18 nM.

Regarding `N=C(N)NNS(=O)(=O)c1cccc([N+](=O)[O-])c1`, the Ki in assay [1] was 1235 nM; in assay [2] it was 170 nM.

With `COC(=N)NS(=O)(=O)c1c(Br)c(Br)c(Br)c(Br)c1C(=O)O`, the Ki in assay [1] was 1300 nM; in assay [2] it was 239 nM.

Turning to `CN(C)c1cccc2c(S(=O)(=O)NN=C(N)N)cccc12`, the Ki stood at 1200 nM in assay [1] and 130 nM in assay [2].

In the case of `N=C(N)NNS(=O)(=O)c1c(Br)c(Br)c(Br)c(Br)c1C(=O)O`, the figures for the Ki in assay [1] and in assay [2] were 1200 nM and 213 nM, respectively.

Take `CC(=O)Nc1ccc(S(=O)(=O)NN=C(N)N)cc1`: the figures for the Ki in assay [1] and in assay [2] were 1025 nM and 172 nM, respectively.

Regarding `Cc1ccc(S(=O)(=O)NC(=O)N[C@H](Cc2ccccc2)C(=O)Nc2ccc(S(=O)(=O)NN=C(N)N)cc2)cc1`, the Ki was determined as 1340 nM in assay [1] and 44 nM in assay [2].

Turning to `COC(=N)NS(=O)(=O)c1ccc(NC(=O)CNC(=O)[C@@H]2CCCN2C(=O)NS(=O)(=O)c2ccc(C)cc2)cc1`, the Ki in assay [1] is 1540 nM; in assay [2] it was 27 nM.

Consider `COC(=N)NS(=O)(=O)c1cccc2c(N(C)C)cccc12`, for which the inhibition constant (Ki) in assay [1] is 1375 nM; in assay [2], 138 nM.

`COC(=N)NS(=O)(=O)c1ccc2ccccc2c1`: the Ki is 1445 nM in assay [1] and 147 nM in assay [2].

Consider `N=C(N)NS(=O)(=O)c1ccccc1[N+](=O)[O-]`, for which the inhibition constant Ki in assay [1] came out at 1850 nM; in assay [2], 320 nM.

On to `COC(=N)NS(=O)(=O)c1cccc(N)c1`, for which the Ki worked out at 1370 nM in assay [1] and 99 nM in assay [2].

In the case of `N=C(N)NS(=O)(=O)c1cccs1`, the values for the Ki in assay [1] and in assay [2] were 1320 nM and 185 nM, respectively.

`CC1(C)C2CCC1(CS(=O)(=O)N=C(N)N)C(=O)C2` (centres undefined): the Ki in assay [1] amounted to 980 nM; in assay [2] it was 320 nM.

As to `N=C(N)NS(=O)(=O)c1ccccc1C(=O)O`, the Ki in assay [1] came out at 1445 nM; in assay [2] it was 240 nM.

On to `N=C(N)NNS(=O)(=O)c1cccc2ccccc12`, for which the figures for the Ki in assay [1] and in assay [2] were 1200 nM and 125 nM, respectively.

Turning to `COC(=N)NS(=O)(=O)c1ccccc1[N+](=O)[O-]`, the Ki was determined as 2340 nM in assay [1] and 355 nM in assay [2].

As to `N=C(N)NNS(=O)(=O)c1ccc(C(=O)O)cc1`, the Ki in assay [1] was found to be 1335 nM; in assay [2] it was 97 nM.

For the compound `COC(=N)NS(=O)(=O)c1cccc([N+](=O)[O-])c1`, the Ki was determined as 1375 nM in assay [1] and 213 nM in assay [2].

With `COC(=N)NS(=O)(=O)c1ccc(NC(=O)C2CCCN2C(=O)[C@H](Cc2ccccc2)NC(=O)NS(=O)(=O)c2ccc(C)cc2)cc1` (some centres undefined), the Ki amounted to 1420 nM in assay [1] and 18 nM in assay [2].

Regarding `Cc1cc(C)c(S(=O)(=O)NN=C(N)N)c(C)c1`, the Ki worked out at 1100 nM in assay [1] and 219 nM in assay [2].

On to `COC(=N)NS(=O)(=O)N(C)C`, for which the Ki in assay [1] came to 3300 nM; in assay [2] it was 1360 nM.

On to `COC(=N)NS(=O)(=O)c1ccc([N+](=O)[O-])cc1`, for which the Ki in assay [1] was determined as 1235 nM; in assay [2], 189 nM.

In the case of `COC(=N)NS(=O)(=O)c1ccc(C(=O)O)cc1`, the figures for the Ki in assay [1] and in assay [2] were 1340 nM and 133 nM, respectively.

`N=C(N)NS(=O)(=O)c1c(F)c(F)c(F)c(F)c1F`: the Ki in assay [1] stood at 1350 nM; in assay [2] it was 146 nM.

Regarding `N=C(N)NS(=O)(=O)c1cccc(N)c1`, the figures for the Ki in assay [1] and in assay [2] were 1145 nM and 107 nM, respectively.

With `N=C(N)NS(=O)(=O)c1cccc2ccccc12`, the Ki was found to be 1230 nM in assay [1] and 136 nM in assay [2].

Regarding `N=C(N)NS(=O)(=O)c1cccc([N+](=O)[O-])c1`, the Ki in assay [1] came to 1100 nM; in assay [2] it was 190 nM.

`N=C(N)NNS(=O)(=O)c1ccc(NC(=O)C2CCCN2C(=O)[C@H](Cc2ccccc2)NC(=O)OCc2ccccc2)cc1` (some centres undefined): in assay [1], the Ki is 1400 nM.

In the case of `N=C(N)NS(=O)(=O)c1ccc(C(=O)O)cc1`, the Ki in assay [1] stood at 1235 nM; in assay [2], 104 nM.

Turning to `COC(=N)NS(=O)(=O)c1ccc(F)cc1`, the Ki in assay [1] was 1200 nM; in assay [2], 280 nM.

`N=C(N)NS(=O)(=O)Cc1ccccc1`: the values for the Ki in assay [1] and in assay [2] were 1350 nM and 330 nM, respectively.

For `N=C(N)NS(=O)(=O)c1ccc(F)cc1`, the Ki was found to be 1090 nM in assay [1] and 240 nM in assay [2].

As to `Cc1ccc(S(=O)(=O)NC(=O)NCC(=O)N[C@@H](Cc2c[nH]cn2)C(=O)Nc2ccc(S(=O)(=O)NN=C(N)N)cc2)cc1`, the figures for the Ki in assay [1] and in assay [2] were 1555 nM and 15 nM, respectively.

Turning to `N=C(N)NS(=O)(=O)c1ccc2ccccc2c1`, the Ki in assay [1] was found to be 1300 nM; in assay [2], 132 nM.

`COC(=N)NS(=O)(=O)c1c(C)cc(C)cc1C`: the Ki in assay [1] was 1785 nM; in assay [2] it was 348 nM.

As to `CN(C)c1ccc(/N=N/c2ccc(S(=O)(=O)NN=C(N)N)cc2)cc1`, the inhibitory constant (Ki) in assay [1] is 1355 nM; in assay [2], 139 nM.

`N=C(N)NNS(=O)(=O)c1ccc(Cl)cc1`: the Ki was found to be 1100 nM in assay [1] and 212 nM in assay [2].

For `COc1ccc(S(=O)(=O)NN=C(N)N)cc1N`, the Ki in assay [1] amounted to 1100 nM; in assay [2] it was 219 nM.

Turning to `COC(=N)NS(=O)(=O)c1ccc(NC(C)=O)cc1`, the Ki in assay [1] was found to be 1345 nM; in assay [2] it was 202 nM.
